Data published in PubChem BioAssay (NCI).
Several values for one entry are separate records, joined by “and”; a condition that tells them apart may be missing. Identical values can stand only once.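 Cells were grown in 96-well plates and exposed to each compound for 48 hours at five concentrations; endpoints were interpolated linearly between bracketing concentrations, or set to the highest concentration if not reached. GI50: concentration for 50% inhibition of growth. At the TGI there is no net growth.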

Experiments:
Assay in all cases: NCI tumour cell line growth inhibition, 48 h
NCI/ADR-RES ovarian = system: NCI/ADR-RES ovarian
COLO 205 colon = system: COLO 205 colon
DMS 114 small cell lung = system: DMS 114 small cell lung
MDA-N = system: MDA-N
HOP-92 NSCLC = system: HOP-92 NSCLC
SK-MEL-5 melanoma = system: SK-MEL-5 melanoma
ACHN renal = system: ACHN renal
LOX IMVI melanoma = system: LOX IMVI melanoma
IGROV1 ovarian = system: IGROV1 ovarian
P388 leukemia = system: P388 leukemia
HCT-15 colon = system: HCT-15 colon
HL-60(TB) leukemia = system: HL-60(TB) leukemia
P388/ADR leukemia = system: P388/ADR leukemia
SW-620 colon = system: SW-620 colon
NCI-H460 lung = system: NCI-H460 lung
CAKI-1 renal = system: CAKI-1 renal
MOLT-4 leukemia = system: MOLT-4 leukemia
SK-MEL-28 melanoma = system: SK-MEL-28 melanoma
UACC-257 melanoma = system: UACC-257 melanoma
RXF 393 renal = system: RXF 393 renal
RPMI-8226 leukemia = system: RPMI-8226 leukemia
HOP-62 NSCLC = system: HOP-62 NSCLC
NCI-H522 lung = system: NCI-H522 lung
MDA-MB-231 breast = system: MDA-MB-231 breast
DU-145 prostate = system: DU-145 prostate
K-562 leukemia = system: K-562 leukemia
A498 renal = system: A498 renal
SN12C renal = system: SN12C renal
LXFL 529 NSCLC = system: LXFL 529 NSCLC
KM12 colon = system: KM12 colon
HT29 colon = system: HT29 colon
DLD-1 colon = system: DLD-1 colon
CCRF-CEM leukemia = system: CCRF-CEM leukemia
SF-539 CNS = system: SF-539 CNS
NCI-H226 lung = system: NCI-H226 lung
U251 CNS = system: U251 CNS
EKVX NSCLC = system: EKVX NSCLC
MALME-3M melanoma = system: MALME-3M melanoma
OVCAR-8 ovarian = system: OVCAR-8 ovarian
DMS 273 small cell lung = system: DMS 273 small cell lung
SR leukemia = system: SR leukemia
BT-549 breast = system: BT-549 breast
NCI-H23 lung = system: NCI-H23 lung
KM20L2 colon = system: KM20L2 colon
OVCAR-3 ovarian = system: OVCAR-3 ovarian
MCF7 breast = system: MCF7 breast
HOP-18 NSCLC = system: HOP-18 NSCLC
TK-10 renal = system: TK-10 renal
HCC-2998 colon = system: HCC-2998 colon
OVCAR-5 ovarian = system: OVCAR-5 ovarian
M14 melanoma = system: M14 melanoma
SNB-19 CNS = system: SNB-19 CNS
A549 NSCLC = system: A549 NSCLC
XF 498 CNS = system: XF 498 CNS
M19-MEL melanoma = system: M19-MEL melanoma
SNB-75 CNS = system: SNB-75 CNS
SF-268 CNS = system: SF-268 CNS
UO-31 renal = system: UO-31 renal
PC-3 prostate = system: PC-3 prostate
SK-OV-3 ovarian = system: SK-OV-3 ovarian
UACC-62 melanoma = system: UACC-62 melanoma
OVCAR-4 ovarian = system: OVCAR-4 ovarian
HCT-116 colon = system: HCT-116 colon
786-0 renal = system: 786-0 renal
SNB-78 CNS = system: SNB-78 CNS
MDA-MB-435 = system: MDA-MB-435
SF-295 CNS = system: SF-295 CNS
SK-MEL-2 melanoma = system: SK-MEL-2 melanoma
RXF-631 renal = system: RXF-631 renal

COc1ccc2nc3ccccc3c(NCCN(C)CCCl)c2c1
TGI (NCI/ADR-RES ovarian): 3.79 µM
TGI (COLO 205 colon): 1.84 µM
TGI (DMS 114 small cell lung): 2.31 µM
TGI (MDA-N): 2.4 µM
TGI (HOP-92 NSCLC): 3.85 µM
TGI (SK-MEL-5 melanoma): 2.03 µM
TGI (ACHN renal): 1.91 µM
TGI (LOX IMVI melanoma): 1.77 µM
TGI (IGROV1 ovarian): 2.58 µM
TGI (P388 leukemia): 1.51 µM
TGI (HCT-15 colon): 7.56 µM
TGI (HL-60(TB) leukemia): 1.73 µM
TGI (P388/ADR leukemia): 8.73 µM
TGI (SW-620 colon): 1.91 µM
TGI (NCI-H460 lung): 2.49 µM
TGI (CAKI-1 renal): 2.2 µM
TGI (MOLT-4 leukemia): 0.497 µM
TGI (SK-MEL-28 melanoma): 3.97 µM
TGI (UACC-257 melanoma): 9.46 µM
TGI (RXF 393 renal): 1.86 µM
TGI (RPMI-8226 leukemia): 1.53 µM
TGI (HOP-62 NSCLC): 3.7 µM
TGI (NCI-H522 lung): 1.51 µM
TGI (MDA-MB-231 breast): 2.98 µM
TGI (DU-145 prostate): 4.47 µM
TGI (K-562 leukemia): 9.24 µM
TGI (A498 renal): 3.02 µM
TGI (SN12C renal): 2.86 µM
TGI (LXFL 529 NSCLC): 1.85 µM
TGI (KM12 colon): 4.13 µM
TGI (HT29 colon): 4.95 µM
TGI (DLD-1 colon): 3.45 µM
TGI (CCRF-CEM leukemia): 3.67 µM
TGI (SF-539 CNS): 1.85 µM
TGI (NCI-H226 lung): 2.26 µM
TGI (U251 CNS): 3.16 µM
TGI (EKVX NSCLC): 4.37 µM
TGI (MALME-3M melanoma): 1.5 µM
TGI (OVCAR-8 ovarian): 2.76 µM
TGI (DMS 273 small cell lung): 2.35 µM
TGI (SR leukemia): 2.31 µM
TGI (BT-549 breast): 3.24 µM
TGI (NCI-H23 lung): 1.88 µM
TGI (KM20L2 colon): 2.88 µM
TGI (OVCAR-3 ovarian): 3.29 µM
TGI (MCF7 breast): 4.18 µM
TGI (HOP-18 NSCLC): 6.29 µM
TGI (TK-10 renal): 15.7 µM
TGI (HCC-2998 colon): 2.15 µM
TGI (OVCAR-5 ovarian): 3.84 µM
TGI (M14 melanoma): 2.29 µM
TGI (SNB-19 CNS): 7.44 µM
TGI (A549 NSCLC): 4.88 µM
TGI (XF 498 CNS): 2.3 µM
TGI (M19-MEL melanoma): 2.48 µM
TGI (SNB-75 CNS): 4.07 µM
TGI (SF-268 CNS): 3.85 µM
TGI (UO-31 renal): 3.38 µM
TGI (PC-3 prostate): 2.24 µM
TGI (SK-OV-3 ovarian): 3.5 µM
TGI (UACC-62 melanoma): 2.03 µM
TGI (OVCAR-4 ovarian): 2.8 µM
TGI (HCT-116 colon): 2.63 µM
TGI (786-0 renal): 1.89 µM
TGI (SNB-78 CNS): 4.76 µM
TGI (MDA-MB-435): 2.15 µM
TGI (SF-295 CNS): 4.17 µM
TGI (SK-MEL-2 melanoma): 2.41 µM

CC(=O)OC1COC(N2CCc3ccccc32)C(OC(C)=O)C1OC(C)=O (stereo not given)
TGI (COLO 205 colon): > 100 µM
TGI (DMS 114 small cell lung): > 100 µM
GI50 (HOP-92 NSCLC): > 100 µM
TGI (HOP-92 NSCLC): > 100 µM
TGI (SK-MEL-5 melanoma): > 100 µM
TGI (ACHN renal): > 100 µM
TGI (LOX IMVI melanoma): > 100 µM
TGI (IGROV1 ovarian): > 100 µM
TGI (HCT-15 colon): > 100 µM
GI50 (HL-60(TB) leukemia): 89.3 µM and 28.2 µM
TGI (HL-60(TB) leukemia): > 100 µM
TGI (SW-620 colon): > 100 µM
TGI (NCI-H460 lung): > 100 µM
TGI (CAKI-1 renal): > 100 µM
TGI (MOLT-4 leukemia): > 100 µM
TGI (SK-MEL-28 melanoma): > 100 µM
TGI (UACC-257 melanoma): > 100 µM
TGI (RXF 393 renal): > 100 µM
TGI (RPMI-8226 leukemia): > 100 µM
TGI (RXF-631 renal): > 100 µM
TGI (HOP-62 NSCLC): > 100 µM
TGI (NCI-H522 lung): > 100 µM
TGI (K-562 leukemia): > 100 µM
TGI (A498 renal): > 100 µM
TGI (SN12C renal): > 100 µM
TGI (LXFL 529 NSCLC): > 100 µM
TGI (KM12 colon): > 100 µM
TGI (HT29 colon): > 100 µM
TGI (DLD-1 colon): > 100 µM
TGI (CCRF-CEM leukemia): > 100 µM
TGI (SF-539 CNS): > 100 µM
TGI (NCI-H226 lung): > 100 µM
TGI (U251 CNS): > 100 µM
TGI (EKVX NSCLC): > 100 µM
TGI (MALME-3M melanoma): > 100 µM
TGI (OVCAR-8 ovarian): > 100 µM
TGI (DMS 273 small cell lung): > 100 µM
TGI (SR leukemia): > 100 µM
TGI (NCI-H23 lung): > 100 µM
TGI (KM20L2 colon): > 100 µM
TGI (OVCAR-3 ovarian): > 100 µM
TGI (HOP-18 NSCLC): > 100 µM
TGI (TK-10 renal): > 100 µM
TGI (HCC-2998 colon): > 100 µM
TGI (OVCAR-5 ovarian): > 100 µM
TGI (M14 melanoma): > 100 µM
TGI (SNB-19 CNS): > 100 µM
TGI (A549 NSCLC): > 100 µM
TGI (XF 498 CNS): > 100 µM
TGI (M19-MEL melanoma): > 100 µM
GI50 (SNB-75 CNS): > 100 µM
TGI (SNB-75 CNS): > 100 µM
TGI (SF-268 CNS): > 100 µM
TGI (UO-31 renal): > 100 µM
TGI (SK-OV-3 ovarian): > 100 µM
TGI (UACC-62 melanoma): > 100 µM
TGI (OVCAR-4 ovarian): > 100 µM
TGI (HCT-116 colon): > 100 µM
TGI (786-0 renal): > 100 µM
TGI (SNB-78 CNS): > 100 µM
TGI (SF-295 CNS): > 100 µM
TGI (SK-MEL-2 melanoma): > 100 µM
